# Data published in patent US20230277669A1, “USES OF UROLITHINS” (Amazentis SA, priority 2022, published 2023).
# System: TIL CD8+ population
# Test: Flow cytometry analysis of TIL of UA-fed mice with APTK tumors
# Type: in vivo, C57BL/6 mice
# Protocol: (FIG. 2A) Scheme of CD3+ T-cell activation and analysis for various timepoints. (FIG. 2B) Reduced effector molecule expression on in vitro treated cells (n=3 pooled from three independent experiments). Isolated T-cells were stimulated for 48 h at the presence of UA or DMSO in the indicated doses. Data are mean ± SD, *p < 0.05 by two-sided t-test. (FIG. 2C) Reduced effector molecule expression on in vitro treated cells (n=3 pooled from three independent experiments). Isolated T-cells were stimulated for 48 h at the presence of UA or DMSO in the indicated doses. Data are mean ± SD, *p < 0.05 by two-sided t-test. (FIG. 2D) Quantification of T memory stem cells (TSCM: CD44^-CD62L^+Sca1^hi) after 24 h, 48 h and 96 h post stimulation with aCD3/aCD28 stimulation beads as indicated in (A) (n=4 pooled from four independent experiments). Data are mean ± SD, statistical analysis was performed via two-sided t-test (*p < 0.05; **p < 0.01; n.s. not significant). (FIG. 2E) Mitochondrial membrane potential within naïve CD62L^+CD44^-CD8^+ T cells, with TMRM^lo representing cells with low mitochondrial membrane potential. Cells were stimulated for 48 h as depicted in (A). Data are mean ± SD, n=4; ***p <0.001 by two-sided t-test. Experiment was repeated twice in independent experiments. (FIG. 2F) Representative histogram and quantification of memory marker CD95 expression in CD62L^+CD44^-CD8^+ cells, 48 hours after in vitro stimulation. Data are mean ± SD; n=5; ****p < 0.0001 by two-sided t-test. Data depicts one of two independent experiments. (FIG. 2G) Analysis of TIL of UA-fed mice, treated as depicted in FIG. 1J. Percentage of TSCM within CD8+ (G; n=7), as well as TCF1 (H; n=7) PD1^hi,Tim3^hi and CTLA4hi (I-K, all n=6) in the TIL CD8+ population are shown. Data are mean ± SD, statistical analysis was performed via two-sided t-test (*p < 0.05; **p < 0.01;, ***p <0.001.). Data depicts one of two independent experiments. (FIG. 2H) The same experiment as FIG. 2G with TCF1 (n=7) in the TIL CD8+ population. (FIG. 2I) The same experiment as FIG. 2G with PD1^hi (n=6) in the TIL CD8+ population. (FIG. 2J) The same experiment as FIG. 2G with Tim3^hi (n=6) in the TIL CD8+ population. (FIG. 2K) The same experiment as FIG. 2G with CTLA4hi (n=6) in the TIL CD8+ population. (FIG. 2L) Flow cytometry readout of ex vivo cytokine release of previously isolated TIL upon re-stimulation with PMA/ionomycin. Data are mean ± SD with n=7 per group. Statistical analysis was performed by two-sided t-test (**p < 0.01). One out of two independent experiments are shown. (FIG. 2M) Flow cytometry readout of ex vivo cytokine release of previously isolated TIL upon re-stimulation with PMA/ionomycin. Data are mean ± SD with n=7 per group. Statistical analysis was performed by two-sided t-test (**p < 0.01). One out of two independent experiments are shown.
# (FIG. 5L) UA induces PGC-1α expression in stimulated CD8+ cells. PGC-1α MFI at 48 h upon stimulation, as assessed by intracellular staining, is shown (n=3). One of two independent experiments are shown. Data are mean ± SD, statistical analysis was performed by two-sided t-test (p**<0.01). (FIG. 5M) Mitochondrial content of TIL CD8+ cells harvested from APTK-carrying mice, fed UA or control diet as depicted in FIG. 1J. Assessed by Mitotracker Red staining. Data are mean ± SD, *p < 0.05 by two-sided t-test. (FIG. 5N) Mitophagy and subsequent PGAM5 release drive PGC-1α upregulation. PGC-1α expression of CD8+ cells derived from Pink1^-/- KO mice upon 48 h stimulation in vitro in the presence of UA or DMSO control (n=4). Data are mean ± SD, statistical analysis was performed by two-sided t-test. Depicts one of two independent experiments. (FIG. 5O) Mitophagy and subsequent PGAM5 release drive PGC-1 α upregulation. PGC-1α expression of CD8+ cells derived from PGAM5^-^/- mice upon 48 h stimulation in vitro in the presence of UA or DMSO control (n=4). Data are mean ± SD, statistical analysis was performed by two-sided t-test. […]
# [1] = ex vivo restimulation with PMA/ionomycin
smiles,measurement,setting,value
O=c1oc2cc(O)ccc2c2ccc(O)cc12 [Urolithin A],mitochondrial content in TIL of APTK tumors,UA or control diet,increased mitochondrial content
same,CD8+CD44loCD62LhiSca1hi T cells (TSCM) in APTK-induced tumors,UA-fed mice,marked increase
same,TCF1 expression in tumor infiltrating CD8+ T cells,UA-fed mice,increased expression
same,"dendritic cells (DCs), TAMs, MDSC subsets in TME",UA-fed mice,no change
same,exhaustion marker CTLA-4 in CD8+ T cells,UA-fed mice,reduction
same,exhaustion marker PD-1 in CD8+ T cells,UA-fed mice,reduction
same,exhaustion marker Tim3 in CD8+ T cells,UA-fed mice,reduction
same,IFNg induction in tumor infiltrating CD8+ T cells,[1],stronger induction
same,TNFa induction in tumor infiltrating CD8+ T cells,[1],stronger induction
